Laboratory results taken from patent publication US6458748B1, “Di- or tri-fluoromethanesulfonyl anilide derivatives, process for the preparation of them and herbicides containing them as the active ingredient” (Ihara Chemical Industry Co., Ltd., priority 1998, dated 2002).

Tests used:
[1] = system: Monochoria vaginalis (Burm. f.) Presl var. plantaginea (Roxb.) Solms-Laub.; assay: Test 2 paddy pot herbicidal effect with water drainage and feeding; format: in vivo; conditions: water drainage and feeding 2 cm per day for two days, 28th day
Description: (§1) Further, a tuber of Sagittaria pygmaea Miq. was buried. […] For two days starting from the next day, water drainage and feeding each of 2 cm in depth per day were conducted.

Sagittaria pygmaea Miq. = assay: as above; format: in vivo; conditions: water drainage and feeding 2 cm per day for two days, 28th day
Description: as §1

[2] = system: Echinochloa oryzicola vasing.; assay: Test 3 herbicidal effect, application before germination or at 3-leaf stage; conditions: 28th day from application
[3] = system: Monochoria vaginalis (Burm. f.) Presl var. plantaginea (Roxb.) Solms-Laub.; assay: Test 1 paddy pot herbicidal effect, water surface application; format: in vivo; conditions: applied day after sowing, evaluated 28 days later
Text: (§2) Standard of herbicidal effect (level of suppression of development and growth) […] Herbicidal effect of 90% or more, injury to paddy rice […] Herbicidal effect of 70% or more to less than 90%, injury to paddy rice […] 2: […]

[4] = system: Echinochloa oryzicola vasing.; assay: as above; format: in vivo; conditions: applied day after sowing, evaluated 28 days later
Text: as §2

Which “Herbicidal effect Ec” value ([1]; 0.6 g/10 ares) does the source give for COc1cc(OC)nc(C(O)c2ccccc2NS(=O)(=O)C(F)F)n1 (centres unmarked) [Example 1, 2-[(4,6-dimethoxypyrimidine-2-yl)hydroxymethyl]-N-difluoromethanesulfonyl anilide] here?
The value was 2 (Herbicidal effect of 30% or more to less than 50%, injury to paddy rice).

And the “Herbicidal effect Ec” value ([1]; 1.3 g/10 ares)?
Its value is 4 (Herbicidal effect of 70% or more to less than 90%, injury to paddy rice).

What about the “Herbicidal effect Ec” value ([1]; 2.5 g/10 ares) of the same compound?
Its value is 5 (Herbicidal effect of 90% or more, injury to paddy rice).

What about the “Herbicidal effect Ec” value ([1]; 5.0 g/10 ares) of the same compound?
The value was 5 (Herbicidal effect of 90% or more, injury to paddy rice).

And the “Herbicidal effect Sc” value (Sagittaria pygmaea Miq.; 0.6 g/10 ares)?
Its value is 2 (Herbicidal effect of 30% or more to less than 50%, injury to paddy rice).

What about the “Herbicidal effect Sc” value (Sagittaria pygmaea Miq.; 1.3 g/10 ares) of the same compound?
The value was 5 (Herbicidal effect of 90% or more, injury to paddy rice).

And the “Herbicidal effect Sc” value (Sagittaria pygmaea Miq.; 2.5 g/10 ares)?
Its value is 5 (Herbicidal effect of 90% or more, injury to paddy rice).

And the “Herbicidal effect Sc” value (Sagittaria pygmaea Miq.; 5.0 g/10 ares)?
Its value is 5 (Herbicidal effect of 90% or more, injury to paddy rice).

And the “Herbicidal effect (Ec) Application at 3-leaf stage” value (“Herbicidal effect … at 3-leaf stage” for short) ([2]; 0.3 g/10 ares)?
Its value is 0 (Herbicidal effect of less than 10%, injury to paddy rice).

And the “Herbicidal effect (Ec) Application before germination” value ([2]; 0.3 g/10 ares)?
Its value is 1 (Herbicidal effect of 10% or more to less than 30%, injury to paddy rice).

What about the “Herbicidal effect … at 3-leaf stage” value ([2]; 0.6 g/10 ares) of the same compound?
Its value is 1 (Herbicidal effect of 10% or more to less than 30%, injury to paddy rice).

What about the “Herbicidal effect (Ec) Application before germination” value ([2]; 0.6 g/10 ares) of the same compound?
The value was 2 (Herbicidal effect of 30% or more to less than 50%, injury to paddy rice).

And the “Herbicidal effect … at 3-leaf stage” value ([2]; 1.3 g/10 ares)?
The value was 2 (Herbicidal effect of 30% or more to less than 50%, injury to paddy rice).

What about the “Herbicidal effect (Ec) Application before germination” value ([2]; 1.3 g/10 ares) of the same compound?
Its value is 3 (Herbicidal effect of 50% or more to less than 70%, injury to paddy rice).

What about the “Herbicidal effect … at 3-leaf stage” value ([2]; 2.5 g/10 ares) of the same compound?
Its value is 4 (Herbicidal effect of 70% or more to less than 90%, injury to paddy rice).

And the “Herbicidal effect (Ec) Application before germination” value ([2]; 2.5 g/10 ares)?
Its value is 5 (Herbicidal effect of 90% or more, injury to paddy rice).

And the “Herbicidal effect … at 3-leaf stage” value ([2]; 5.0 g/10 ares)?
The value was 5 (Herbicidal effect of 90% or more, injury to paddy rice).

What about the “Herbicidal effect (Ec) Application before germination” value ([2]; 5.0 g/10 ares) of the same compound?
Its value is 5 (Herbicidal effect of 90% or more, injury to paddy rice).

And the “Herbicidal effect Mo” value ([3]; 0.4 g/10 ares)?
Its value is 5 (Herbicidal effect of 90% or more, injury to paddy rice).

What about the “Herbicidal effect Mo” value ([3]; 1.6 g/10 ares) of the same compound?
The value was 5 (Herbicidal effect of 90% or more, injury to paddy rice).

What about the “Herbicidal effect Mo” value ([3]; 6.3 g/10 ares) of the same compound?
Its value is 5 (Herbicidal effect of 90% or more, injury to paddy rice).

And the “Herbicidal effect Mo” value ([3]; 25.0 g/10 ares)?
The value was 5 (Herbicidal effect of 90% or more, injury to paddy rice).

And the “Herbicidal effect Ec” value ([4]; 0.4 g/10 ares)?
Its value is 1 (Herbicidal effect of 10% or more to less than 30%, injury to paddy rice).

What about the “Herbicidal effect Ec” value ([4]; 1.6 g/10 ares) of the same compound?
Its value is 3 (Herbicidal effect of 50% or more to less than 70%, injury to paddy rice).

And the “Herbicidal effect Ec” value ([4]; 6.3 g/10 ares)?
Its value is 4 (Herbicidal effect of 70% or more to less than 90%, injury to paddy rice).

What about the “Herbicidal effect Ec” value ([4]; 25.0 g/10 ares) of the same compound?
The value was 5 (Herbicidal effect of 90% or more, injury to paddy rice).

For COCc1cccc(C(O)c2nc(OC)cc(OC)n2)c1NS(=O)(=O)C(F)F (centres unmarked) [Example 2, 2-[(4,6-dimethoxypyrimidine-2-yl)hydroxymethyl]-6-methoxymethyl-N-difluoromethanesulfonyl anilide], which “Herbicidal effect … at 3-leaf stage” value ([2]; 0.3 g/10 ares) is on record?
The value was 3 (Herbicidal effect of 50% or more to less than 70%, injury to paddy rice).

What about the “Herbicidal effect (Ec) Application before germination” value ([2]; 0.3 g/10 ares) of the same compound?
Its value is 4 (Herbicidal effect of 70% or more to less than 90%, injury to paddy rice).

What about the “Herbicidal effect … at 3-leaf stage” value ([2]; 0.6 g/10 ares) of the same compound?
Its value is 4 (Herbicidal effect of 70% or more to less than 90%, injury to paddy rice).

What about the “Herbicidal effect (Ec) Application before germination” value ([2]; 0.6 g/10 ares) of the same compound?
Its value is 5 (Herbicidal effect of 90% or more, injury to paddy rice).

And the “Herbicidal effect … at 3-leaf stage” value ([2]; 1.3 g/10 ares)?
The value was 5 (Herbicidal effect of 90% or more, injury to paddy rice).

And the “Herbicidal effect (Ec) Application before germination” value ([2]; 1.3 g/10 ares)?
The value was 5 (Herbicidal effect of 90% or more, injury to paddy rice).

What about the “Herbicidal effect … at 3-leaf stage” value ([2]; 2.5 g/10 ares) of the same compound?
Its value is 5 (Herbicidal effect of 90% or more, injury to paddy rice).

What about the “Herbicidal effect (Ec) Application before germination” value ([2]; 2.5 g/10 ares) of the same compound?
Its value is 5 (Herbicidal effect of 90% or more, injury to paddy rice).

And the “Herbicidal effect … at 3-leaf stage” value ([2]; 5.0 g/10 ares)?
The value was 5 (Herbicidal effect of 90% or more, injury to paddy rice).

And the “Herbicidal effect (Ec) Application before germination” value ([2]; 5.0 g/10 ares)?
Its value is 5 (Herbicidal effect of 90% or more, injury to paddy rice).

What about the “Herbicidal effect Mo” value ([3]; 0.4 g/10 ares) of the same compound?
Its value is 5 (Herbicidal effect of 90% or more, injury to paddy rice).

What about the “Herbicidal effect Mo” value ([3]; 1.6 g/10 ares) of the same compound?
The value was 5 (Herbicidal effect of 90% or more, injury to paddy rice).

And the “Herbicidal effect Mo” value ([3]; 6.3 g/10 ares)?
Its value is 5 (Herbicidal effect of 90% or more, injury to paddy rice).

What about the “Herbicidal effect Mo” value ([3]; 25.0 g/10 ares) of the same compound?
The value was 5 (Herbicidal effect of 90% or more, injury to paddy rice).

And the “Herbicidal effect Ec” value ([4]; 0.4 g/10 ares)?
The value was 4 (Herbicidal effect of 70% or more to less than 90%, injury to paddy rice).

What about the “Herbicidal effect Ec” value ([4]; 1.6 g/10 ares) of the same compound?
Its value is 5 (Herbicidal effect of 90% or more, injury to paddy rice).

What about the “Herbicidal effect Ec” value ([4]; 6.3 g/10 ares) of the same compound?
Its value is 5 (Herbicidal effect of 90% or more, injury to paddy rice).

And the “Herbicidal effect Ec” value ([4]; 25.0 g/10 ares)?
Its value is 5 (Herbicidal effect of 90% or more, injury to paddy rice).

CCc1cccc(C(O)c2nc(OC)cc(OC)n2)c1NS(=O)(=O)C(F)F (centres unmarked) [Example 3, 2-[(4,6-dimethoxypyrimidine-2-yl)hydroxymethyl]-6-ethyl-N-difluoromethanesulfonyl anilide] was tested. Which “Herbicidal effect … at 3-leaf stage” value ([2]; 0.3 g/10 ares) did it give?
Its value is 2 (Herbicidal effect of 30% or more to less than 50%, injury to paddy rice).

What about the “Herbicidal effect (Ec) Application before germination” value ([2]; 0.3 g/10 ares) of the same compound?
The value was 4 (Herbicidal effect of 70% or more to less than 90%, injury to paddy rice).

What about the “Herbicidal effect … at 3-leaf stage” value ([2]; 0.6 g/10 ares) of the same compound?
The value was 4 (Herbicidal effect of 70% or more to less than 90%, injury to paddy rice).

And the “Herbicidal effect (Ec) Application before germination” value ([2]; 0.6 g/10 ares)?
Its value is 5 (Herbicidal effect of 90% or more, injury to paddy rice).

And the “Herbicidal effect … at 3-leaf stage” value ([2]; 1.3 g/10 ares)?
Its value is 5 (Herbicidal effect of 90% or more, injury to paddy rice).

What about the “Herbicidal effect (Ec) Application before germination” value ([2]; 1.3 g/10 ares) of the same compound?
Its value is 5 (Herbicidal effect of 90% or more, injury to paddy rice).

And the “Herbicidal effect … at 3-leaf stage” value ([2]; 2.5 g/10 ares)?
The value was 5 (Herbicidal effect of 90% or more, injury to paddy rice).

What about the “Herbicidal effect (Ec) Application before germination” value ([2]; 2.5 g/10 ares) of the same compound?
Its value is 5 (Herbicidal effect of 90% or more, injury to paddy rice).

What about the “Herbicidal effect … at 3-leaf stage” value ([2]; 5.0 g/10 ares) of the same compound?
The value was 5 (Herbicidal effect of 90% or more, injury to paddy rice).

And the “Herbicidal effect (Ec) Application before germination” value ([2]; 5.0 g/10 ares)?
The value was 5 (Herbicidal effect of 90% or more, injury to paddy rice).

What about the “Herbicidal effect Mo” value ([3]; 0.4 g/10 ares) of the same compound?
Its value is 5 (Herbicidal effect of 90% or more, injury to paddy rice).

What about the “Herbicidal effect Mo” value ([3]; 1.6 g/10 ares) of the same compound?
Its value is 5 (Herbicidal effect of 90% or more, injury to paddy rice).

What about the “Herbicidal effect Mo” value ([3]; 6.3 g/10 ares) of the same compound?
The value was 5 (Herbicidal effect of 90% or more, injury to paddy rice).

What about the “Herbicidal effect Mo” value ([3]; 25.0 g/10 ares) of the same compound?
The value was 5 (Herbicidal effect of 90% or more, injury to paddy rice).

What about the “Herbicidal effect Ec” value ([4]; 0.4 g/10 ares) of the same compound?
The value was 4 (Herbicidal effect of 70% or more to less than 90%, injury to paddy rice).

What about the “Herbicidal effect Ec” value ([4]; 1.6 g/10 ares) of the same compound?
Its value is 5 (Herbicidal effect of 90% or more, injury to paddy rice).

And the “Herbicidal effect Ec” value ([4]; 6.3 g/10 ares)?
The value was 5 (Herbicidal effect of 90% or more, injury to paddy rice).

What about the “Herbicidal effect Ec” value ([4]; 25.0 g/10 ares) of the same compound?
Its value is 5 (Herbicidal effect of 90% or more, injury to paddy rice).
